In paper PMC6627609, “Targeting Quorum Sensing: High-Throughput Screening to Identify Novel LsrK Inhibitors” (International Journal of Molecular Sciences, 2019):
pIC50: −log10 of the molar value. Where a name gives a salt, the structure may show the parent alone.

Target: LsrK (Salmonella typhimurium, UniProt Q8ZKQ6)
Assay: biochemical
Format: biochemical, S. typhimurium
Details: for Inhibition (%): 50 µM

LsrK, sequence (Q8ZKQ6 whole entry): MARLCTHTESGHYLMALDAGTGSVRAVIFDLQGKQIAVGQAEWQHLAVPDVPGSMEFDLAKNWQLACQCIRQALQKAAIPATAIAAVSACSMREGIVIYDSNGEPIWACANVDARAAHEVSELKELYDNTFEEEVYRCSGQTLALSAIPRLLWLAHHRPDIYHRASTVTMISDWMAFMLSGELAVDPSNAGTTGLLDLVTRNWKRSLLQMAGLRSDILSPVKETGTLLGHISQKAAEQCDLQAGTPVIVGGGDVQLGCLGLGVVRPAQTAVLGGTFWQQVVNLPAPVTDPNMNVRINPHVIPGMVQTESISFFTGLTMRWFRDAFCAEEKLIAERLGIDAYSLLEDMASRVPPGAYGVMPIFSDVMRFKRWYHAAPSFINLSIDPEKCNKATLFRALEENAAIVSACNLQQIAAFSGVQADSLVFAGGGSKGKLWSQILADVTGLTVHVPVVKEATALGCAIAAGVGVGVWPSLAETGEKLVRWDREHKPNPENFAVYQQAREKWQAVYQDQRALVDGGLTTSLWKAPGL

COc1cc([C@@H]2c3cc4c(cc3[C@@H](O[C@@H]3O[C@@H]5CO[C@@H](c6cccs6)O[C@H]5[C@H](O)[C@H]3O)[C@H]3COC(=O)[C@H]23)OCO4)cc(OC)c1O [TENIPOSIDE]
inhibition at 50 µM: 2%

COc1cc2nc(N3CCN(C(=O)C4CCCO4)CC3)nc(N)c2cc1OC (centres unmarked) [TERAZOSIN HYDROCHLORIDE]
inhibition at 50 µM: 1%

CN(C/C=C/C#CC(C)(C)C)Cc1cccc2ccccc12 [TERBINAFINE HYDROCHLORIDE]
inhibition at 50 µM: 1%

CC(C)(C)NCC(O)c1cc(O)cc(O)c1.CC(C)(C)NCC(O)c1cc(O)cc(O)c1.O=S(=O)(O)O (centres unmarked) [TERBUTALINE HEMISULFATE]
Inhibition (%): 1

N#Cc1c(Cl)c(Cl)c(Cl)c(C#N)c1Cl [TETRACHLOROISOPHTHALONITRILE]
pIC50: 5.05 | inhibition at 50 µM: 138%

CN(C)[C@@H]1C(O)=C(C(N)=O)C(=O)[C@@]2(O)C(O)=C3C(=O)c4c(O)cccc4[C@@](C)(O)[C@H]3C[C@@H]12 [TETRACYCLINE HYDROCHLORIDE]
inhibition at 50 µM: 114%

Cl.c1ccc(C2CN3CCSC3=N2)cc1 (centres unmarked) [TETRAMIZOLE HYDROCHLORIDE]
Inhibition (%): 22

O=C(O[C@@H]1Cc2c(O)cc(O)cc2O[C@@H]1c1cc(O)c(=O)c2c(O)c(O)cc([C@H]3Oc4cc(O)cc(O)c4C[C@H]3O)c2c1)c1cc(O)c(O)c(O)c1 [THEAFLAVIN MONOGALLATES]
inhibition at 50 µM: 129%

O=c1c(O)cc([C@H]2Oc3cc(O)cc(O)c3C[C@H]2O)cc2c([C@H]3Oc4cc(O)cc(O)c4C[C@H]3O)cc(O)c(O)c12 [THEAFLAVIN]
inhibition at 50 µM: 133%

CCNC(=O)CC[C@H](N)C(=O)O [THEANINE]
inhibition at 50 µM: 1%

Cn1cnc2c1c(=O)[nH]c(=O)n2C [THEOBROMINE]
inhibition at 50 µM: 0%

O=c1cccc2n1C[C@@H]1C[C@H]2CN2CCCC[C@H]12.[O-][Cl+3]([O-])([O-])O [THERMOPSINE PERCHLORATE]
Inhibition (%): 0

c1ccc2[nH]c(-c3cscn3)nc2c1 [THIABENDAZOLE]
inhibition at 50 µM: 5%

O=C(O)CCCCC1CCSS1 (centres unmarked) [THIOCTIC ACID]
Inhibition (%): 170%

Nc1nc2nc[nH]c2c(=S)[nH]1 [THIOGUANINE]
inhibition at 50 µM: 1%

S=P(N1CC1)(N1CC1)N1CC1 [THIOTEPA]
inhibition at 50 µM: 14%

CN(C)C(=S)SSC(=S)N(C)C [THIRAM]
inhibition at 50 µM: 104%

COc1ccc(CN(CCN(C)C)c2ncccn2)cc1 [THONZYLAMINE HYDROCHLORIDE, reference compound]
pIC50: 4.62 | inhibition at 50 µM: 112%

CC1=CC(=O)C(C(C)C)=CC1=O [THYMOQUINONE]
inhibition at 50 µM: 2%

CC1(C)S[C@@H]2[C@H](NC(=O)[C@H](C(=O)O)c3ccsc3)C(=O)N2[C@H]1C(=O)O [TICARCILLIN DISODIUM]
inhibition at 50 µM: 0%

Clc1ccccc1CN1CCc2sccc2C1 [TICLOPIDINE HYDROCHLORIDE]
inhibition at 50 µM: 1%

CC[C@H]1OC(=O)C[C@@H](O)[C@H](C)[C@@H](O[C@@H]2O[C@H](C)[C@@H](O)[C@H](N(C)C)[C@H]2O)[C@@H](CCN2C[C@H](C)C[C@H](C)C2)C[C@@H](C)C(=O)/C=C/C(C)=C/[C@@H]1CO[C@@H]1O[C@H](C)[C@@H](O)[C@@H](OC)[C@H]1OC [TILMICOSIN]
inhibition at 50 µM: 16%

CCS(=O)(=O)CCn1c([N+](=O)[O-])cnc1C [TINIDAZOLE]
inhibition at 50 µM: 1%

Clc1ccc(C(Cn2ccnc2)OCc2ccsc2Cl)c(Cl)c1 (centres unmarked) [TIOCONAZOLE]
inhibition at 50 µM: 2%

O=c1oc2cc(O)ccc2s1 [TIOXOLONE]
inhibition at 50 µM: 88%

NC[C@H]1O[C@H](O[C@H]2[C@H](O)[C@@H](O[C@H]3O[C@H](CO)[C@@H](O)[C@H](N)[C@H]3O)[C@H](N)C[C@@H]2N)[C@H](N)C[C@@H]1O [TOBRAMYCIN]
inhibition at 50 µM: 0%

CCOC(=O)NNc1nncc2ccccc12 [TODRALAZINE HYDROCHLORIDE]
inhibition at 50 µM: 2%

Cc1c(Cl)cccc1Nc1ccccc1C(=O)O [TOLFENAMIC ACID]
inhibition at 50 µM: 97%

Cc1ccc(C(=O)c2ccc(CC(=O)O)n2C)cc1 [TOLMETIN SODIUM]
inhibition at 50 µM: 1%

C[C@H]1CC[C@]2(NC1)O[C@H]1C[C@H]3[C@@H]4CC[C@H]5C[C@@H](O[C@@H]6O[C@H](CO)[C@H](O[C@@H]7O[C@H](CO)[C@@H](O)[C@H](O[C@@H]8OC[C@@H](O)[C@H](O)[C@H]8O)[C@H]7O[C@@H]7O[C@H](CO)[C@@H](O)[C@H](O)[C@H]7O)[C@H](O)[C@H]6O)CC[C@]5(C)[C@H]4CC[C@]3(C)[C@H]1[C@@H]2C [TOMATINE]
inhibition at 50 µM: 2%

CC1(C)O[C@@H]2[C@@H](CO[C@@]3(COS(N)(=O)=O)OC(C)(C)O[C@@H]23)O1 [TOPIRAMATE]
inhibition at 50 µM: 1%

CC[C@@]1(O)C(=O)OCc2c1cc1n(c2=O)Cc2cc3c(CN(C)C)c(O)ccc3nc2-1 [TOPOTECAN HYDROCHLORIDE]
inhibition at 50 µM: 0%

CN(C)CCOc1ccc(/C(=C(/CCCl)c2ccccc2)c2ccccc2)cc1 [TOREMIPHENE CITRATE]
Inhibition (%): 138

Cc1ccc(S(=O)(=O)NCl)cc1 [TOSYL[…]]
inhibition at 50 µM: 3%

CC(=O)Oc1ccc(/C=C/c2cc(OC(C)=O)cc(OC(C)=O)c2)cc1 [TRIACETYLRESVERATROL]
inhibition at 50 µM: 1%

C[C@]12C=CC(=O)C=C1CC[C@H]1[C@@H]3C[C@@H](O)[C@](O)(C(=O)CO)[C@@]3(C)C[C@H](O)[C@@]12F [TRIAMCINOLONE]
inhibition at 50 µM: 11%

NS(=O)(=O)c1cc2c(cc1Cl)NC(C(Cl)Cl)NS2(=O)=O (centres unmarked) [TRICHLORMETHIAZIDE]
inhibition at 50 µM: 1%

Oc1cc(Cl)ccc1Oc1ccc(Cl)cc1Cl [TRICLOSAN]
inhibition at 50 µM: 2%

Cl.Cl.NCCNCCNCCN [TRIENTINE HYDROCHLORIDE]
Inhibition (%): 13

CN(C)CCCN1c2ccccc2Sc2ccc(C(F)(F)F)cc21 [TRIFLUPROMAZINE HYDROCHLORIDE]
inhibition at 50 µM: 122%

COc1cc(Cc2cnc(N)nc2N)cc(OC)c1OC [TRIMETHOPRIM]
inhibition at 50 µM: 0%

CC(CN(C)C)CN1c2ccccc2CCc2ccccc21 (centres unmarked) [TRIMIPRAMINE MALEATE]
inhibition at 50 µM: 111%

CN(C)CCN(Cc1ccccc1)c1ccccn1 [TRIPELENNAMINE CITRATE]
inhibition at 50 µM: 2%

O=C([O-])CN(CCN(CC(=O)[O-])CC(=O)O)CC(=O)[O-].[Na+].[Na+].[Na+] [TRISODIUM ETHYLENEDIAMINE TETRACETATE]
Inhibition (%): 1

Cc1c(C)c2c(c(C)c1O)CCC(C)(C(=O)O)O2 (centres unmarked) [TROLOX]
inhibition at 50 µM: 0%

COc1cc2c3cc1Oc1cc(ccc1O)C[C@@H]1c4c(cc(OC)c(O)c4Oc4ccc(cc4)C[C@@H]3N(C)CC2)CC[N+]1(C)C.Cl.O.O.O.O.O.[Cl-] [TUBOCURARINE CHLORIDE]
Inhibition (%): 0

CC[C@H]1OC(=O)C[C@@H](O)[C@H](C)[C@@H](O[C@@H]2O[C@H](C)[C@@H](O[C@H]3C[C@@](C)(O)[C@@H](O)[C@H](C)O3)[C@H](N(C)C)[C@H]2O)[C@@H](CC=O)C[C@@H](C)C(=O)/C=C/C(C)=C/[C@@H]1CO[C@@H]1O[C@H](C)[C@@H](O)[C@@H](OC)[C@H]1OC [TYLOSIN TARTRATE]
Inhibition (%): 1

N[C@@H](Cc1ccc(O)cc1)C(=O)O [TYROSINE]
inhibition at 50 µM: 1%

COC1=C(OC)C(=O)C(C/C=C(\C)CC/C=C(\C)CC/C=C(\C)CC/C=C(\C)CC/C=C(\C)CC/C=C(\C)CC/C=C(\C)CC/C=C(\C)CC/C=C(\C)CCC=C(C)C)=C(C)C1=O [UBIDECARENEONE]
inhibition at 50 µM: 1%

C=CCCCCCCCCC(=O)O [UNDECYLENIC ACID]
inhibition at 50 µM: 1%

COc1ccccc1N1CCN(CCCNc2cc(=O)n(C)c(=O)n2C)CC1 [URAPIDIL HYDROCHLORIDE]
inhibition at 50 µM: 1%

O=c1ccn([C@@H]2O[C@H](COP(=O)([O-])OP(=O)([O-])OP(=O)([O-])O)[C@@H](O)[C@H]2O)c(=O)[nH]1.[Na+].[Na+].[Na+] [URIDINE TRIPHOSPHATE TRISODIUM]
Inhibition (%): 1

CC(=O)c1c(O)c(C)c(O)c2c1OC1=CC(=O)C(C(C)=O)C(=O)C12C (centres unmarked) [USNIC ACID]
inhibition at 50 µM: 204%

CCC(C)C(=O)O[C@@H]1C[C@@]2(C)[C@H](c3ccoc3)OC(=O)CC23OC2(C)O[C@]14[C@]1(C)[C@@H](CC(=O)OC)C5(C)CC1(O)[C@](O)(C5OC(=O)C1(C)OC1C)[C@@H](OC(C)=O)[C@]34O2 (some centres unmarked) [UTILIN]
inhibition at 50 µM: 1%

CC(C)[C@H](N)C(=O)OCCOCn1cnc2c(=O)[nH]c(N)nc21 [VALACYCLOVIR HYDROCHLORIDE]
inhibition at 50 µM: 2%

CCCCC(=O)Oc1ccccc1C(=O)O [VALERYL SALYCILATE]
inhibition at 50 µM: 1%

CCCC(CCC)C(=O)O [VALPROATE SODIUM]
inhibition at 50 µM: 0%

CN[C@H](CC(C)C)C(=O)N[C@H]1C(=O)N[C@@H](CC(N)=O)C(=O)N[C@H]2C(=O)N[C@H]3C(=O)N[C@H](C(=O)N[C@H](C(=O)O)c4cc(O)cc(O)c4-c4cc3ccc4O)[C@H](O)c3ccc(c(Cl)c3)Oc3cc2cc(c3O[C@@H]2O[C@H](CO)[C@@H](O)[C@H](O)[C@H]2O[C@H]2C[C@](C)(N)[C@H](O)[C@H](C)O2)Oc2ccc(cc2Cl)[C@H]1O [VANCOMYCIN HYDROCHLORIDE]
inhibition at 50 µM: 0%

CCCc1nc(C)c2c(=O)[nH]c(-c3cc(S(=O)(=O)N4CCN(CC)CC4)ccc3OCC)nn12 [VARDENAFIL HYDROCHLORIDE]
inhibition at 50 µM: 1%

CC(=O)O[C@H]1C[C@@H]2CC[C@@H]3[C@H](CC[C@@]4(C)[C@H]3C[C@H]([N+]3(C)CCCCC3)[C@@H]4OC(C)=O)[C@@]2(C)C[C@@H]1N1CCCCC1 [VECURONIUM BROMIDE]
inhibition at 50 µM: 1%

COc1ccc(CCN(C)CCCC(C#N)(c2ccc(OC)c(OC)c2)C(C)C)cc1OC (centres unmarked) [VERAPAMIL HYDROCHLORIDE]
inhibition at 50 µM: 1%

OC1CCCCC1N1CCC(c2ccccc2)CC1 (centres unmarked) [VESAMICOL HYDROCHLORIDE]
inhibition at 50 µM: 1%

Nc1ncnc2c1ncn2[C@@H]1O[C@H](CO)[C@@H](O)[C@@H]1O [VIDARABINE]
inhibition at 50 µM: 0%

C=CC(N)CCC(=O)O (centres unmarked) [VIGABATRIN]
inhibition at 50 µM: 1%

O=c1c2ccccc2oc2ccccc12 [XANTHONE]
inhibition at 50 µM: 1%

Nc1nc(=O)c2[nH]c(=O)cnc2[nH]1 [XANTHOPTERIN]
inhibition at 50 µM: 2%

COc1cc(O)c(C(C)=O)c(OC)c1 [XANTHOXYLIN]
inhibition at 50 µM: 0%

Cc1cccc(C)c1N=C1NCCCS1 [XYLAZINE]
inhibition at 50 µM: 0%

Cc1cc(C(C)(C)C)cc(C)c1CC1=NCCN1 [XYLOMETAZOLINE HYDROCHLORIDE]
inhibition at 50 µM: 1%
